From US8258176B2, “Dithiolopyrrolone compounds, the preparation and the use thereof” (Shanghai Institute of Pharmaceutical Industry, priority 2007, dated 2012)

Test system: peripheral blood leukocytes of normal mice
Assay: Effects on peripheral blood leukocytes of normal mice (peripheral blood routine test)
Type: in vivo
Conditions: G-CSF 22.5 ug/kg sc once a day
Source text: Animal hematology analyzer, model: HEMAVET950 • 2. Method
The mice were divided into blank control group, positive control group and the dithiolopyrrolone series of compounds group, there are 10 mice in each group.

[1] = day 0 (before administration), compounds 20 mg/kg ig once a day
[2] = day 3, compounds 20 mg/kg ig once a day
[3] = day 5, compounds 20 mg/kg ig once a day

| SMILES | NE % (percentage of neutrophils in the total number of white blood cells) [1] | WBC count [1] | NE % (percentage of neutrophils in the total number of white blood cells) [2] | WBC count [2] | NE % (percentage of neutrophils in the total number of white blood cells) [3] | WBC count [3] |
| --- | --- | --- | --- | --- | --- | --- |
| COc1ccc(-n2c3cssc-3c(NC(=O)OCC(C)C)c2=O)c(OC)c1 [compound 002] | 20.11% | 8.12e+09 L⁻¹ | 52.13% | 1.189e+10 L⁻¹ | 68.69% | 1.678e+10 L⁻¹ |
| COc1ccc(-n2c3cssc-3c(NC(=O)OCc3ccccc3)c2=O)c(OC)c1 [compound 003] | 32.51% | 7.84e+09 L⁻¹ | 54.34% | 1.456e+10 L⁻¹ | 68.30% | 1.744e+10 L⁻¹ |
| COC(=O)Nc1c2sscc-2n(-c2ccc(OC)cc2OC)c1=O [compound 005] | 26.46% | 8.08e+09 L⁻¹ | 35.55% | 8.76e+09 L⁻¹ | 46.65% | 8.64e+09 L⁻¹ |
| COc1ccc(-n2c3cssc-3c(NC(=O)OC(C)C)c2=O)c(OC)c1 [compound 007] | 23.31% | 8.11e+09 L⁻¹ | 48.67% | 1.188e+10 L⁻¹ | 52.02% | 1.222e+10 L⁻¹ |
| C=CCOC(=O)Nc1c2sscc-2n(-c2ccc(OC)cc2OC)c1=O [compound 008] | 31.56% | 8.88e+09 L⁻¹ | 60.03% | 1.779e+10 L⁻¹ | 65.55% | 1.876e+10 L⁻¹ |
| CCCOC(=O)Nc1c2sscc-2n(-c2ccc(OC)cc2OC)c1=O [compound 009] | 23.62% | 9.01e+09 L⁻¹ | 27.46% | 1.39e+10 L⁻¹ | 47.78% | 1.421e+10 L⁻¹ |
| COc1ccc(OC(=O)Nc2c3sscc-3n(-c3ccc(OC)cc3OC)c2=O)cc1 [compound 010] | 20.86% | 8.87e+09 L⁻¹ | 24.34% | 1.018e+10 L⁻¹ | 32.34% | 1.023e+10 L⁻¹ |
| CCCCCOC(=O)Nc1c2sscc-2n(-c2ccc(OC)cc2OC)c1=O [compound 011] | 27.68% | 8.76e+09 L⁻¹ | 46.65% | 1.146e+10 L⁻¹ | 51.87% | 1.188e+10 L⁻¹ |
| COc1ccc(-n2c3cssc-3c(NC(=O)OCC3CCCO3)c2=O)c(OC)c1 (stereo not drawn) [compound 012] | 34.02% | 9.03e+09 L⁻¹ | 38.98% | 1.146e+10 L⁻¹ | 49.07% | 1.201e+10 L⁻¹ |
| CCCCOC(=O)Nc1c2sscc-2n(-c2ccc(OC)cc2OC)c1=O [compound 013] | 25.6% | 6.36e+09 L⁻¹ | 48.76% | 1.269e+10 L⁻¹ | 52.84% | 1.329e+10 L⁻¹ |
| COc1ccc(-n2c3cssc-3c(NC(=O)OC3CCCC3)c2=O)c(OC)c1 [compound 014] | 20.81% | 6.78e+09 L⁻¹ | 23.39% | 1.156e+10 L⁻¹ | 40.40% | 1.201e+10 L⁻¹ |
| CCCCCCCOC(=O)Nc1c2sscc-2n(-c2ccc(OC)cc2OC)c1=O [compound 015] | 20.76% | 7.46e+09 L⁻¹ | 25.65% | 1.156e+10 L⁻¹ | 38.87% | 1.334e+10 L⁻¹ |
| COc1ccc(-n2c3cssc-3c(NC(=O)OCCCl)c2=O)c(OC)c1 [compound 016] | 18.79% | 7.34e+09 L⁻¹ | 40.47% | 1.047e+10 L⁻¹ | 45.76% | 1.156e+10 L⁻¹ |
| COc1ccc(-n2c3cssc-3c(NC(=O)Oc3ccc(Cl)cc3)c2=O)c(OC)c1 [compound 017] | 23.24% | 6.36e+09 L⁻¹ | 28.88% | 8.67e+09 L⁻¹ | 36.90% | 8.88e+09 L⁻¹ |
| COc1ccc(-n2c3cssc-3c(NC(=O)Oc3ccc(C)cc3)c2=O)c(OC)c1 [compound 018] | 21.74% | 6.15e+09 L⁻¹ | 23.38% | 8.59e+09 L⁻¹ | 26.04% | 9.03e+09 L⁻¹ |
| COc1ccc(-n2c3cssc-3c(NC(=O)OCc3ccco3)c2=O)c(OC)c1 [compound 019] | 24.36% | 6.88e+09 L⁻¹ | 28.89% | 9.35e+09 L⁻¹ | 29.84% | 1.087e+10 L⁻¹ |
| COc1ccc(-n2c3cssc-3c(NC(=O)OC(C)c3ccccc3)c2=O)c(OC)c1 (stereo not drawn) [compound 020] | 30.03% | 5.09e+09 L⁻¹ | 38.66% | 9.61e+09 L⁻¹ | 42.49% | 1.122e+10 L⁻¹ |
| COc1ccc(-n2c3cssc-3c(NC(=O)OCc3cccs3)c2=O)c(OC)c1 [compound 021] | 29.78% | 5.22e+09 L⁻¹ | 36.52% | 9.93e+09 L⁻¹ | 49.65% | 1.122e+10 L⁻¹ |
| COc1ccc(-n2c3cssc-3c(NC(=O)Oc3cccnc3)c2=O)c(OC)c1 [compound 022] | 31.23% | 6.86e+09 L⁻¹ | 38.98% | 1.003e+10 L⁻¹ | 47.74% | 1.211e+10 L⁻¹ |
| COc1ccc(-n2c3cssc-3c(NC(=O)N3CCOCC3)c2=O)c(OC)c1 [compound 023] | 26.86% | 7.86e+09 L⁻¹ | 56.66% | 2.234e+10 L⁻¹ | 77.31% | 2.998e+10 L⁻¹ |
| COc1ccc(-n2c3cssc-3c(NC(=O)NCc3ccccc3)c2=O)c(OC)c1 [compound 024] | 24.67% | 7.95e+09 L⁻¹ | 33.98% | 8.76e+09 L⁻¹ | 42.02% | 9.71e+09 L⁻¹ |
| COc1ccc(-n2c3cssc-3c(NC(=O)Nc3ccccc3)c2=O)c(OC)c1 [compound 026] | 28.98% | 7.84e+09 L⁻¹ | 30.38% | 8.76e+09 L⁻¹ | 38.63% | 9.71e+09 L⁻¹ |
| CCSC(=O)Nc1c2sscc-2n(-c2ccc(OC)cc2OC)c1=O [compound 027] | 24.45% | 8.76e+09 L⁻¹ | 45.46% | 1.122e+10 L⁻¹ | 48.37% | 1.254e+10 L⁻¹ |
